# Data taken from PubChem BioAssay AID1259407 (Chemical Carcinogenesis Research Information System (CCRIS), 2018).
# Active and inactive are the calls of the source. How the calls were made is not given here.
# Test system: CCRIS mutagenicity, Ames/micronucleus/aberration tests
# Assay: CCRIS mutagenicity studies
structure (smiles),measurement,setting,value
O=Cc1ccccc1,mutagenic call,"End Point: IN VITRO CHROMOSOMAL ABERRATIONS, Test System: CHINESE HAMSTER OVARY CELLS, Metabolic Activation: NONE",inactive; negative
same,mutagenic call,"End Point: IN VITRO CHROMOSOMAL ABERRATIONS, Test System: CHINESE HAMSTER OVARY CELLS, Metabolic Activation: RAT, LIVER, S-9, AROCLOR 1254",inactive; negative
same,mutagenic call,"End Point: In vitro chromosomal aberrations, Test System: Chinese hamster lung (CHL/IU) cells, Metabolic Activation: Rat, Liver, S9, Phenobarbital and 5,6-benzoflavone",inactive; negative. weak positive response for ploidy is not dose related.
same,mutagenic call,"Test System: AMES SALMONELLA TYPHIMURIUM, Strain/Indicator: TA97, Metabolic Activation: NONE, Method: PREINCUBATION",inactive; negative
same,mutagenic call,"Test System: AMES SALMONELLA TYPHIMURIUM, Strain/Indicator: TA97, Metabolic Activation: RAT, LIVER, S-9, AROCLOR 1254, Method: PREINCUBATION",inactive; negative
same,mutagenic call,"Test System: AMES SALMONELLA TYPHIMURIUM, Strain/Indicator: TA98, Metabolic Activation: HAMSTER, LIVER, S-9, AROCLOR 1254 (10%), Method: PREINCUBATION",inactive; negative
same,mutagenic call,"Test System: AMES SALMONELLA TYPHIMURIUM, Strain/Indicator: TA98, Metabolic Activation: NONE, Method: FLUCTUATION (MICROTITER)",inactive; negative
same,mutagenic call,"Test System: AMES SALMONELLA TYPHIMURIUM, Strain/Indicator: TA98, Metabolic Activation: NONE, Method: PREINCUBATION",inactive; negative
same,mutagenic call,"Test System: AMES SALMONELLA TYPHIMURIUM, Strain/Indicator: TA98, Metabolic Activation: RAT LIVER S-9, AROCLOR 1254, Method: FLUCTUATION (MICROTITER)",inactive; negative
same,mutagenic call,"Test System: AMES SALMONELLA TYPHIMURIUM, Strain/Indicator: TA98, Metabolic Activation: RAT LIVER S-9, PHENOBARBITAL AND BETA-NAPHTHOFLAVONE, Method: PREINCUBATION",inactive; negative
same,mutagenic call,"Test System: AMES SALMONELLA TYPHIMURIUM, Strain/Indicator: TA98, Metabolic Activation: RAT, LIVER, S-9, AROCLOR 1254 (10%), Method: PREINCUBATION",inactive; negative
same,mutagenic call,"Test System: AMES SALMONELLA TYPHIMURIUM, Strain/Indicator: TA100, Metabolic Activation: HAMSTER, LIVER, S-9, AROCLOR 1254 (10%), Method: PREINCUBATION",inactive; negative
same,mutagenic call,"Test System: AMES SALMONELLA TYPHIMURIUM, Strain/Indicator: TA100, Metabolic Activation: MOUSE, LIVER, S-9, AROCLOR 1254 (10%), Method: PREINCUBATION",inactive; negative
same,mutagenic call,"Test System: AMES SALMONELLA TYPHIMURIUM, Strain/Indicator: TA100, Metabolic Activation: RAT LIVER S-9, AROCLOR 1254, Method: PREINCUBATION",inactive; negative
same,mutagenic call,"Test System: AMES SALMONELLA TYPHIMURIUM, Strain/Indicator: TA100, Metabolic Activation: RAT LIVER S-9, PHENOBARBITAL AND BETA-NAPHTHOFLAVONE, Method: PREINCUBATION",inactive; negative
same,mutagenic call,"Test System: AMES SALMONELLA TYPHIMURIUM, Strain/Indicator: TA100, Metabolic Activation: RAT, LIVER, S-9, AROCLOR 1254 (10%), Method: PREINCUBATION",inactive; negative
same,mutagenic call,"Test System: AMES SALMONELLA TYPHIMURIUM, Strain/Indicator: TA102, Metabolic Activation: MOUSE, LIVER, S-9, AROCLOR 1254 (10%), Method: PREINCUBATION",inactive; negative
same,mutagenic call,"Test System: AMES SALMONELLA TYPHIMURIUM, Strain/Indicator: TA102, Metabolic Activation: NONE, Method: PREINCUBATION",inactive; negative
same,mutagenic call,"Test System: AMES SALMONELLA TYPHIMURIUM, Strain/Indicator: TA102, Metabolic Activation: RAT LIVER S-9, AROCLOR 1254, Method: PREINCUBATION",inactive; negative
same,mutagenic call,"Test System: AMES SALMONELLA TYPHIMURIUM, Strain/Indicator: TA102, Metabolic Activation: RAT, LIVER, S-9, AROCLOR 1254 (10%), Method: PREINCUBATION",inactive; negative
same,mutagenic call,"Test System: AMES SALMONELLA TYPHIMURIUM, Strain/Indicator: TA102, Metabolic Activation: RAT, LIVER, S-9, AROCLOR 1254, Method: PREINCUBATION",inactive; negative
same,mutagenic call,"Test System: AMES SALMONELLA TYPHIMURIUM, Strain/Indicator: TA104, Metabolic Activation: MOUSE, LIVER, S-9, AROCLOR 1254 (10%), Method: PREINCUBATION",inactive; negative
same,mutagenic call,"Test System: AMES SALMONELLA TYPHIMURIUM, Strain/Indicator: TA104, Metabolic Activation: NONE, Method: PREINCUBATION",inactive; negative
same,mutagenic call,"Test System: AMES SALMONELLA TYPHIMURIUM, Strain/Indicator: TA104, Metabolic Activation: RAT LIVER S-9, AROCLOR 1254, Method: PREINCUBATION",inactive; negative
same,mutagenic call,"Test System: AMES SALMONELLA TYPHIMURIUM, Strain/Indicator: TA104, Metabolic Activation: RAT, LIVER, S-9, AROCLOR 1254 (10%), Method: PREINCUBATION",inactive; negative
same,mutagenic call,"Test System: AMES SALMONELLA TYPHIMURIUM, Strain/Indicator: TA1535, Metabolic Activation: HAMSTER, LIVER, S-9, AROCLOR 1254 (10%), Method: PREINCUBATION",inactive; negative
same,mutagenic call,"Test System: AMES SALMONELLA TYPHIMURIUM, Strain/Indicator: TA1535, Metabolic Activation: NONE, Method: PREINCUBATION",inactive; negative
same,mutagenic call,"Test System: AMES SALMONELLA TYPHIMURIUM, Strain/Indicator: TA1535, Metabolic Activation: RAT LIVER S-9, PHENOBARBITAL AND BETA-NAPHTHOFLAVONE, Method: PREINCUBATION",inactive; negative
same,mutagenic call,"Test System: AMES SALMONELLA TYPHIMURIUM, Strain/Indicator: TA1535, Metabolic Activation: RAT, LIVER, S-9, AROCLOR 1254 (10%), Method: PREINCUBATION",inactive; negative
same,mutagenic call,"Test System: AMES SALMONELLA TYPHIMURIUM, Strain/Indicator: TA1537, Metabolic Activation: HAMSTER, LIVER, S-9, AROCLOR 1254 (10%), Method: PREINCUBATION",inactive; negative
same,mutagenic call,"Test System: AMES SALMONELLA TYPHIMURIUM, Strain/Indicator: TA1537, Metabolic Activation: NONE, Method: FLUCTUATION (MICROTITER)",inactive; negative
same,mutagenic call,"Test System: AMES SALMONELLA TYPHIMURIUM, Strain/Indicator: TA1537, Metabolic Activation: NONE, Method: PREINCUBATION",inactive; negative
same,mutagenic call,"Test System: AMES SALMONELLA TYPHIMURIUM, Strain/Indicator: TA1537, Metabolic Activation: RAT LIVER S-9, AROCLOR 1254, Method: FLUCTUATION (MICROTITER)",inactive; negative
same,mutagenic call,"Test System: AMES SALMONELLA TYPHIMURIUM, Strain/Indicator: TA1537, Metabolic Activation: RAT LIVER S-9, PHENOBARBITAL AND BETA-NAPHTHOFLAVONE, Method: PREINCUBATION",inactive; negative
same,mutagenic call,"Test System: AMES SALMONELLA TYPHIMURIUM, Strain/Indicator: TA1537, Metabolic Activation: RAT, LIVER, S-9, AROCLOR 1254 (10%), Method: PREINCUBATION",inactive; negative
same,mutagenic call,"Test System: AMES SALMONELLA TYPHIMURIUM, Strain/Indicator: TA7001, Metabolic Activation: NONE, Method: FLUCTUATION (MICROTITER)",inactive; negative
same,mutagenic call,"Test System: AMES SALMONELLA TYPHIMURIUM, Strain/Indicator: TA7001, Metabolic Activation: RAT LIVER S-9, AROCLOR 1254, Method: FLUCTUATION (MICROTITER)",inactive; negative
same,mutagenic call,"Test System: AMES SALMONELLA TYPHIMURIUM, Strain/Indicator: TA7002, Metabolic Activation: NONE, Method: FLUCTUATION (MICROTITER)",inactive; negative
same,mutagenic call,"Test System: AMES SALMONELLA TYPHIMURIUM, Strain/Indicator: TA7002, Metabolic Activation: RAT LIVER S-9, AROCLOR 1254, Method: FLUCTUATION (MICROTITER)",inactive; negative
same,mutagenic call,"Test System: AMES SALMONELLA TYPHIMURIUM, Strain/Indicator: TA7003, Metabolic Activation: NONE, Method: FLUCTUATION (MICROTITER)",inactive; negative
same,mutagenic call,"Test System: AMES SALMONELLA TYPHIMURIUM, Strain/Indicator: TA7003, Metabolic Activation: RAT LIVER S-9, AROCLOR 1254, Method: FLUCTUATION (MICROTITER)",inactive; negative
same,mutagenic call,"Test System: AMES SALMONELLA TYPHIMURIUM, Strain/Indicator: TA7004, Metabolic Activation: NONE, Method: FLUCTUATION (MICROTITER)",inactive; negative
same,mutagenic call,"Test System: AMES SALMONELLA TYPHIMURIUM, Strain/Indicator: TA7004, Metabolic Activation: RAT LIVER S-9, AROCLOR 1254, Method: FLUCTUATION (MICROTITER)",inactive; negative
same,mutagenic call,"Test System: AMES SALMONELLA TYPHIMURIUM, Strain/Indicator: TA7005, Metabolic Activation: NONE, Method: FLUCTUATION (MICROTITER)",inactive; negative
same,mutagenic call,"Test System: AMES SALMONELLA TYPHIMURIUM, Strain/Indicator: TA7005, Metabolic Activation: RAT LIVER S-9, AROCLOR 1254, Method: FLUCTUATION (MICROTITER)",active; positive
same,mutagenic call,"Test System: AMES SALMONELLA TYPHIMURIUM, Strain/Indicator: TA7006, Metabolic Activation: NONE, Method: FLUCTUATION (MICROTITER)",inactive; negative
same,mutagenic call,"Test System: AMES SALMONELLA TYPHIMURIUM, Strain/Indicator: TA7006, Metabolic Activation: RAT LIVER S-9, AROCLOR 1254, Method: FLUCTUATION (MICROTITER)",inactive; negative
same,mutagenic call,"Test System: E.COLI, Strain/Indicator: WP2UVRA/PKM101, Metabolic Activation: NONE, Method: PREINCUBATION",inactive; negative
same,mutagenic call,"Test System: E.COLI, Strain/Indicator: WP2UVRA/PKM101, Metabolic Activation: RAT LIVER S-9, PHENOBARBITAL AND BETA-NAPHTHOFLAVONE, Method: PREINCUBATION",inactive; negative
same,mutagenic call,"Test System: MOUSE LYMPHOMA, Strain/Indicator: L5178Y (TK+/TK-), Metabolic Activation: NONE, Method: SUSPENSION/PLATE",active; positive
